Measured values taken from the kinase profiling compilation of Christmann-Franck et al. (2016).

Legend:
Test in all cases: radiometric filter-binding kinase assay, Kinase HotSpot
Conditions in all cases: compound 0.5 µM; ATP 10 µM
CSK (human) = CSK (human) (UniProt P41240)
DAPK3 (human) = DAPK3 (human) (UniProt O43293)
EPHA8 (human) = EPHA8 (human) (UniProt P29322)
GRK7 (human) = GRK7 (human) (UniProt Q8WTQ7)
ITK (human) = ITK (human) (UniProt Q08881)
MAP3K5 (human) = MAP3K5 (human) (UniProt Q99683)
STK33 (human) = STK33 (human) (UniProt Q9BYT3)
Sequence of STK33 (human) (Q9BYT3 whole entry, looked up): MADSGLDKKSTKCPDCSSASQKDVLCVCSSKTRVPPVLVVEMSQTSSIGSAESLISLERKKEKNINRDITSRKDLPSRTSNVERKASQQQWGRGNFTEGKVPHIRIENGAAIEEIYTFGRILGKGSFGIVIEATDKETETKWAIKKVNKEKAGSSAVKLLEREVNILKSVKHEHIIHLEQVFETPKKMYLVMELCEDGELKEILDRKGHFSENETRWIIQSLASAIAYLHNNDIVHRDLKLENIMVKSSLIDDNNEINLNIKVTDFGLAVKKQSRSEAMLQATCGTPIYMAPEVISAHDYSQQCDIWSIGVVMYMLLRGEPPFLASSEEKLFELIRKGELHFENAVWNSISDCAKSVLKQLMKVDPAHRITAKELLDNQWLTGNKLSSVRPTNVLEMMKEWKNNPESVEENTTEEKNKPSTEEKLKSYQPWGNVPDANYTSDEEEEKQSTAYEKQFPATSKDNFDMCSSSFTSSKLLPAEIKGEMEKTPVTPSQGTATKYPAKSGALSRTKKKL

Sequence of DAPK3 (human) (O43293 whole entry, looked up): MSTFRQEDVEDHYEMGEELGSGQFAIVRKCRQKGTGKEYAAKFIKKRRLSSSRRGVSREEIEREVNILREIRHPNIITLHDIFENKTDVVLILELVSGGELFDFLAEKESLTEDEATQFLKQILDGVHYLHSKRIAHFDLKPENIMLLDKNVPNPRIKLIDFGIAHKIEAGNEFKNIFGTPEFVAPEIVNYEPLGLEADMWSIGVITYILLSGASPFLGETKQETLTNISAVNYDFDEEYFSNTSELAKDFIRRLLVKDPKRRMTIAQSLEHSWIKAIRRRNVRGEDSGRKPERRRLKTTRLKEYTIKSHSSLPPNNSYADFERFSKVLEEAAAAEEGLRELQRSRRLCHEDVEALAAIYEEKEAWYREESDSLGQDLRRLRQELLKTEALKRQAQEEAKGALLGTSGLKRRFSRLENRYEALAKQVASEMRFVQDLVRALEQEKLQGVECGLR
Sequence of MAP3K5 (human) (Q99683 whole entry, looked up): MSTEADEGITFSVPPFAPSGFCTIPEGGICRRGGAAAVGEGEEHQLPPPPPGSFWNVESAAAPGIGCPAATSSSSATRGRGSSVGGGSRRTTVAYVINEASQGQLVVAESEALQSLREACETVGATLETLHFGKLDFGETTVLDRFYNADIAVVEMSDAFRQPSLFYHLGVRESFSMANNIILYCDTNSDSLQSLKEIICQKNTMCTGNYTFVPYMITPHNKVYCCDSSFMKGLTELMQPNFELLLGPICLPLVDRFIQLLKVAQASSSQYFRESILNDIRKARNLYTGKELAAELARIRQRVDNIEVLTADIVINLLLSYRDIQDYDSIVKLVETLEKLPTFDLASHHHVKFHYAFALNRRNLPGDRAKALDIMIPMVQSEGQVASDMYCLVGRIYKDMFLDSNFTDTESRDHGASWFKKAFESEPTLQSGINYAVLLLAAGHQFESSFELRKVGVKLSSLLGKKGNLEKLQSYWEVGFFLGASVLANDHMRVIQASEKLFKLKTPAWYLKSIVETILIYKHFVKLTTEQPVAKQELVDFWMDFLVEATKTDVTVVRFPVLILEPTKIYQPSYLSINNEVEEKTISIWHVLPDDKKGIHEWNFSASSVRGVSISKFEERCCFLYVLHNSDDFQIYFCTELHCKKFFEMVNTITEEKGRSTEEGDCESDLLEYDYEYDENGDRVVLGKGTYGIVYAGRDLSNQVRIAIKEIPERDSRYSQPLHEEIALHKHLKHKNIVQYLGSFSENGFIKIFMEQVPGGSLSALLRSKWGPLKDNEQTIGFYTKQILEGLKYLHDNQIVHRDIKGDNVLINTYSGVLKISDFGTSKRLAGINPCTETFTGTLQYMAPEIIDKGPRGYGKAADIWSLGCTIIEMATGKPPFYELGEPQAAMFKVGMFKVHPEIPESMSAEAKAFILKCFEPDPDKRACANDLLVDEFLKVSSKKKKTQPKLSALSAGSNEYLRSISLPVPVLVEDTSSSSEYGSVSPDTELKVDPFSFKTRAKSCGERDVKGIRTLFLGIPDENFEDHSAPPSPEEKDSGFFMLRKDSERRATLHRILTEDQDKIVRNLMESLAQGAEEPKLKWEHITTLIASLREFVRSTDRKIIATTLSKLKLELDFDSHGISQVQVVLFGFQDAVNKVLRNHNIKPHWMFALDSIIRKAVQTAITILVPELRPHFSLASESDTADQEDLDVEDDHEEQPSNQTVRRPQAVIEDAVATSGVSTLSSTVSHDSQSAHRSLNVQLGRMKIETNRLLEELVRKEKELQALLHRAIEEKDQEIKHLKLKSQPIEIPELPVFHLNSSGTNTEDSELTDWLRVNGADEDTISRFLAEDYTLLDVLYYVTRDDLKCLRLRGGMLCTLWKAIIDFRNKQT
Sequence of ITK (human) (Q08881 whole entry, looked up): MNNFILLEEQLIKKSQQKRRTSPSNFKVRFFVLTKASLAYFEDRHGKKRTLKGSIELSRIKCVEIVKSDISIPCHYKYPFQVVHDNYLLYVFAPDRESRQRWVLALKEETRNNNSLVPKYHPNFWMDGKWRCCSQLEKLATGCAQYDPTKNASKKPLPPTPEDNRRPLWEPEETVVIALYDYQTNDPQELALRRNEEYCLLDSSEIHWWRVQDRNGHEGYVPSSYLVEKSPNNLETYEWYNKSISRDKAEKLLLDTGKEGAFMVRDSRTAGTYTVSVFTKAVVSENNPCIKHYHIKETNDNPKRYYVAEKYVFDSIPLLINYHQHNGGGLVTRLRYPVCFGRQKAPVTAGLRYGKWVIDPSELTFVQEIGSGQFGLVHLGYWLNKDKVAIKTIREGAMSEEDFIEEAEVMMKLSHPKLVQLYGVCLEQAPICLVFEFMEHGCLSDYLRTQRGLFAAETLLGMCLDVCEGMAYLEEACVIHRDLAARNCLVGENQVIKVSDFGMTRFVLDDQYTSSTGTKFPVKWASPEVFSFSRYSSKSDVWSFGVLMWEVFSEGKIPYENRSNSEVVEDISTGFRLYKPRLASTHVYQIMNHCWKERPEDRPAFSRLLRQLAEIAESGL
Sequence of CSK (human) (P41240 whole entry, looked up): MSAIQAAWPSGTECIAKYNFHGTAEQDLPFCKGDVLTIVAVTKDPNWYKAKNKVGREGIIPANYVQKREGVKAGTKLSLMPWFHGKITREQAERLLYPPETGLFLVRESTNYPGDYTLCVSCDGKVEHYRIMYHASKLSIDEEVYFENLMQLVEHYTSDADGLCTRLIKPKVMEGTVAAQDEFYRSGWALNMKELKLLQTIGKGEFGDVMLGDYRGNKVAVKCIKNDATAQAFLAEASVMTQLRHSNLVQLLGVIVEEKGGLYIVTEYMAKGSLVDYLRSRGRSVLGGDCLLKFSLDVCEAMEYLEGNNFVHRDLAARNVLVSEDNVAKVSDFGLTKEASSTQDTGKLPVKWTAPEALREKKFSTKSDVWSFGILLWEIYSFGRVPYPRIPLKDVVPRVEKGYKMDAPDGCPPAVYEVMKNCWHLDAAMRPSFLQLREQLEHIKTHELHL
Sequence of EPHA8 (human) (P29322 whole entry, looked up): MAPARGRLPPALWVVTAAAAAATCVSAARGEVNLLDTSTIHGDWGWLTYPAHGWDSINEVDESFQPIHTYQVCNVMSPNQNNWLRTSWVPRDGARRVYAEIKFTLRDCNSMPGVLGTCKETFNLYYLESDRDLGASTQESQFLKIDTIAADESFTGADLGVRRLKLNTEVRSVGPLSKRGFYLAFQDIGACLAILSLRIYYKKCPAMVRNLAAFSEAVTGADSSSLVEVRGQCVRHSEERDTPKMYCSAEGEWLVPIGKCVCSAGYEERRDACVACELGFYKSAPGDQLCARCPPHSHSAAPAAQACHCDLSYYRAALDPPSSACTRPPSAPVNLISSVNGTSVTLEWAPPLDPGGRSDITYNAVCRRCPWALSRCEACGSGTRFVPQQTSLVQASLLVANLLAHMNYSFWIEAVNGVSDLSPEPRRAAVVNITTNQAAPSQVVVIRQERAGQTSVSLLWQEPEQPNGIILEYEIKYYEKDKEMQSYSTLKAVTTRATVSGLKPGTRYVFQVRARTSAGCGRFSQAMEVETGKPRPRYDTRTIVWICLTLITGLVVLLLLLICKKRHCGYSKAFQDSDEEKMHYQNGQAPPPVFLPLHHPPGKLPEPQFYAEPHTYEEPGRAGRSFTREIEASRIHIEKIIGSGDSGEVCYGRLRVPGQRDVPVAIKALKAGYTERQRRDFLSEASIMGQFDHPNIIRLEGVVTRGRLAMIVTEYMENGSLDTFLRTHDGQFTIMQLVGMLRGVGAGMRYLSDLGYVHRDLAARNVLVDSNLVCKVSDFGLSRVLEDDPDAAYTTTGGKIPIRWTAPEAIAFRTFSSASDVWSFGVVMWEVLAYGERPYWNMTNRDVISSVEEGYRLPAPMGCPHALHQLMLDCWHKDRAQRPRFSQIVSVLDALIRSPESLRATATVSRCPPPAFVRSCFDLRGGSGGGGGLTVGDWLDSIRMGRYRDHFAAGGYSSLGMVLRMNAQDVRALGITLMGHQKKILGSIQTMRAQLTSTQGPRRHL
Sequence of GRK7 (human) (Q8WTQ7 whole entry, looked up): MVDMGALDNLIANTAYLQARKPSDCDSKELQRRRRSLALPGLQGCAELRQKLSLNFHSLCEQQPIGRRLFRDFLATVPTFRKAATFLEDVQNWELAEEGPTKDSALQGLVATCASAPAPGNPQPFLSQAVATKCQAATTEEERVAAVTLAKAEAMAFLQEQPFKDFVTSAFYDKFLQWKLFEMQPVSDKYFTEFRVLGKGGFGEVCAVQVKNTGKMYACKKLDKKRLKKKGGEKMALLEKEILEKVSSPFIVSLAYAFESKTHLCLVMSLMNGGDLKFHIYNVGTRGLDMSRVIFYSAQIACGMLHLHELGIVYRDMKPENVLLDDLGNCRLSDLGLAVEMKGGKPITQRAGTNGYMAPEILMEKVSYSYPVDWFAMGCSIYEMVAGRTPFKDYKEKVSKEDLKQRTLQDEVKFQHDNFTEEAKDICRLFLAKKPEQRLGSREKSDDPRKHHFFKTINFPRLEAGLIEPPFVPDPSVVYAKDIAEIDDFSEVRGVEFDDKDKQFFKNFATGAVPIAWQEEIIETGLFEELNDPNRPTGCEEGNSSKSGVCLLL

CN[C@@H]1C[C@H]2O[C@@](C)([C@@H]1OC)n1c3ccccc3c3c4c(c5c6ccccc6n2c5c31)C(=O)NC4
residual activity (CSK (human)): 8.01%
residual activity (DAPK3 (human)): 1.91%
residual activity (EPHA8 (human)): 25.7%
residual activity (GRK7 (human)): 0.737%
residual activity (ITK (human)): 2.89%
residual activity (MAP3K5 (human)): 4.72%
residual activity (STK33 (human)): 10.7%
